Entries after “also recorded” stand apart in the source; their conditions may differ.
Tests used:
MCF7 Adr 10 = test: Tumor cell clonogenic assay, MCF7 ADR 10; format: cell-based, human
in vitro = settings: human
Experimental: (§1) Myelosuppression is often a dose limiting side effect of chemotherapeutic agents. […] The toxicities to human granulocyte-macrophage progenitors (CFU-GM) of 1b, 1c, and VLB was assessed by measuring inhibition of CFU-GM proliferation in cultures continuously exposed to each agent alone and compared to the toxicities to sensitive and resistant MCF7 in tumor cell clonogenic assays.
(§2) METHOD: The CFLI-GM assay measures clonal proliferation of granulocyte/macrophage precursors in semisolid agar cultures. The progeny of the granulocyte/macrophage precursors remain in proximity of the progenitor cells and form colonies. Colonies which contain greater than 40 cells after 10-12 days of culture are counted using an inverted phase contrast microscope. The tumor cell clonogenic assays measure clonal proliferation of tumor cells. In this assay, 300-500 cells are plated in 10 cm^2 wells, allowed to adhere overnight, and are treated the following day. Tumor cell colonies were counted after 10-12 days of culture. The times of exposure in these experiments are similar; however, the concentrations of FCS are 20% in the CFU-GM assay and 10% in the tumor cell clonogenic assays. The IC50's are calculated as described above for the MTT proliferation assays. (See Example 4).
(§3) To facilitate this comparison, a CFLI-GM toxicity index was calculated by dividing the CFU-GM IC50 by the respective tumor cell clonogenic IC50's in sensitive and resistant cells.

[1] = tested on: granulocyte-macrophage progenitors (CFU-GM); test: cells
Experimental: as §1, §2, §3

casein kinase 2 = test: Casein kinase 2 inhibition; format: biochemical
From the text: (§4) One possible explanation for stimulation of phosphorylation of P-glycoprotein and MARCKS is that 1c may activate PKC or other cellular kinases by signal transduction pathways that have not yet been identified to phosphorylate these proteins. An alternative explanation for stimulation of phosphorylation of P-glycoprotein and MARCKS is that 1c inhibits protein phosphatases.

other phosphoproteins = test: Overall phosphoprotein changes in cell extracts; format: cell-based
From the text: as §4

MCF7 WT = test: 72 hour MTT proliferation assay, potentiation of sensitivity in MCF7 WT; format: cell-based, human; settings: MCF7 WT
Experimental: In 72 hour MTT proliferation assays using the following method, compounds 1b, 1c and 1d were assessed for inhibition of Vinca alkaloid and anthracycline drug resistance in MDR MCF7. Additionally, compounds 1b and 1c were assessed for potentiation of sensitivity to Vinca alkaloid and anthracycline drugs in the parental MCF7 WT cell line.
METHOD: 5000 cells per well were plated in 100 μl of IMDM containing 10% FCS and allowed to adhere overnight. The following day the cells were treated with N-substituted 1,4-diaminoanthraquinones and exposed to graded concentrations of antineoplastic agents. 50 μl of IMDM 10% FCS containing either vehicle or N-substituted 1,4-diaminoanthraquinones at 3 times the final tested concentration was added to cells at timed intervals. The plates were incubated for 2 hours at 37° C. to allow maximal cellular accumulation of N-substituted 1,4-diaminoanthraquinones. 40 μl aliquots of IMDM 10% FCS containing either vehicle or graded concentrations of antineoplastic drugs at 5 times the final concentration were added to treatment groups. Following this addition, 10 μl of IMDM 10% FCS containing either vehicle or N-substituted 1,4-diaminoanthraquinone at 5 times the final concentration was added to each group of wells. The cells were incubated for 72 hours after treatment. At this time the viable cells in each treatment group were estimated in a colorimetric assay by adding MTT and incubating the cells at 37° C. for 3-4 hours. The media in each well was aspirated and MTT formazan was solubilized in isopropyl alcohol acidified with 0.1 N HCl. The absorbance of the solubilized formazan was quantitated using a plate reader spectrophotometer. […] The concentrations of antineoplastic drugs which inhibited proliferation by 50% (IC50's) were estimated by calculating a percentage from the ratio: antineoplastic drug treated groups/control group absorbance and plotting the dose response curve on semilog paper. The IC50 was estimated from this curve. To assess the effects of inhibition of resistance by N-substituted 1,4-diaminoanthraquinones, the percentages were calculated relative to cell groups treated with resistance modifier alone and IC50's calculated as above. A reversal factor was calculated by dividing the IC50 to the antineoplastic drug alone (Control group) by the IC50 to antineoplastic drug in cells treated with resistance modifier.

serine threonine kinases = test: In vitro assays of serine threonine kinases; format: biochemical
[2] = target: P-glycoprotein in MCF7 Adr 10 membrane vesicles (Homo sapiens, UniProt P08183); test: biochemical; settings: read-out: decrease of specific binding of [3H] VLB
P-glycoprotein in MCF7 Adr 10 membrane vesicles, sequence (P08183 whole entry): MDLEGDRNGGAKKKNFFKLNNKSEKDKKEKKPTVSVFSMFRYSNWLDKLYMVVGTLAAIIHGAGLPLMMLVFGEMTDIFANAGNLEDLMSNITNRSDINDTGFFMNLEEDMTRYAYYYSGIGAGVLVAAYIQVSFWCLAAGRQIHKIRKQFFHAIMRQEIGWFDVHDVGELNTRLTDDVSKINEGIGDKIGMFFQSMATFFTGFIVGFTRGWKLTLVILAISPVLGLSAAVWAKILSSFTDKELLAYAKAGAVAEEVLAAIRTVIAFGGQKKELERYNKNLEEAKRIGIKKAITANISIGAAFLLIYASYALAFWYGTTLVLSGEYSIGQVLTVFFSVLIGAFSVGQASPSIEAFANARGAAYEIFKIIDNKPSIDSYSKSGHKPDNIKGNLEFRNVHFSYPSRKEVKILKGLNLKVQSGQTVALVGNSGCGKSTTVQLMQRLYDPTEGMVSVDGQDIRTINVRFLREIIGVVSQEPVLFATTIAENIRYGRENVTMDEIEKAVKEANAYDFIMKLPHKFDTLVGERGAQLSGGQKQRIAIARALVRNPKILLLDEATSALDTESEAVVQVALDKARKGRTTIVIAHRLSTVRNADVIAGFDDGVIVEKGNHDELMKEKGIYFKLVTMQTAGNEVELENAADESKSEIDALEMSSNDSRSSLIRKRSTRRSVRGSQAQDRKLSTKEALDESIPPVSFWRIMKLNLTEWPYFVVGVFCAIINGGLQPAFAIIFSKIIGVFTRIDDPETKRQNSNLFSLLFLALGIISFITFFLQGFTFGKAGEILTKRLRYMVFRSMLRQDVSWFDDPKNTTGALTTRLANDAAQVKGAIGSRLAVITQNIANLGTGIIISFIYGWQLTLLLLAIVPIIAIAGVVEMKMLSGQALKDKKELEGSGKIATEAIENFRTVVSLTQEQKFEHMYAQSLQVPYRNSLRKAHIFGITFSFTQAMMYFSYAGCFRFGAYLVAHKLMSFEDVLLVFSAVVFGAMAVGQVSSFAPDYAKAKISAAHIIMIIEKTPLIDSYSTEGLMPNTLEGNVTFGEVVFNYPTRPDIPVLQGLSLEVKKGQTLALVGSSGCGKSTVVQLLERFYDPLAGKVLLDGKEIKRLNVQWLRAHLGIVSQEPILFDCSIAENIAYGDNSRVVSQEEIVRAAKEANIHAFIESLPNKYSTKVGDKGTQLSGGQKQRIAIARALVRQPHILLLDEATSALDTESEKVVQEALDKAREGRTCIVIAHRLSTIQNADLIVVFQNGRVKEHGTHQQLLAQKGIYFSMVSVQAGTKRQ

[3] = tested on: MCF7 Adr 10 human breast cancer cells; test: Vinblastine accumulation assay, MCF7 Adr 10; format: cell-based
Experimental: [^3 H] vinblastine ([^3 H] VLB) was added to a final concentration of 100 nM and the cells were incubated for 2.5 hours. At this time, the cells were washed 3 times in ice cold PBS and lysed in buffer containing 0.1% Triton X-100. Net accumulation of [^3 H] vinblastine was expressed as pmol/mg protein. In [^3 H]

calmodulin kinase = test: Calmodulin kinase inhibition; format: biochemical
From the text: as §4

[4] = tested on: catalytic subunits of protein kinase A; test: Protein kinase A catalytic subunit inhibition; format: biochemical
From the text: as §4

mice = test: Preliminary animal toxicity studies; format: in vivo; settings: 400 mg/kg

SMILES: O=C1c2ccccc2C(=O)c2c(NCCCN3CCOCC3)ccc(NCCCN3CCOCC3)c21 [Compound 1c, 1,4-bis-[[3'(4-morpholino)propyl]amino]anthraquinone]
- IC50 (MCF7 Adr 10; Homo sapiens, NCI/ADR-RES, tumor cell clonogenic assay, 10-12 days, read-out: Continuous Exposure IC50, MCF7 ADR 10): 0.4 µM
- antiproliferative effect relative to human CFU-GM (MCF7 Adr 10; MDR cancer cells, clonal proliferation assays): ~20 times
- relative sensitivity of MCF7 WT and MDR MCF7 to cytotoxicity (MCF7 Adr 10; clonogenic assays): MDR MCF7 are twice as sensitive to 1c cytotoxicity as MCF7 WT
- selectivity ratio (in vitro; CFU-GM Toxicity Index (CFU-GM IC50 / Tumor Cell Clonogenic IC50)): 9.8
- selectivity ratio (in vitro; cfu-gm vs mcf7, lower sensitivity of CFU-GM than drug sensitive (WT) and MDR cancer cell lines): 10 to 20
- IC50 ([1]; Homo sapiens, CFU-GM, read-out: Continuous Exposure IC50, CFU-GM): 7.8 µM
- CFU-GM Toxicity Index (CFU-GM IC50 / Tumor Cell Clonogenic IC50) ([1]; human): 19.5
- casein kinase 2 inhibitory activity (casein kinase 2): did not inhibit
- phosphorylation of other phosphoproteins (other phosphoproteins): did not significantly alter phosphorylation of other phosphoproteins
- effect on toxicity of vincristine in drug sensitive cells (MCF7 WT): enhances toxicity of vincristine in drug sensitive cells
- Reversal Factor (VCR) (MCF7 WT; [1c] 1.0 μM): 1.9
- activity in in vitro assays of serine threonine kinases (serine threonine kinases): does not show significant activity
- inhibition at 5 µM [2]: 29%
- inhibition at 10 µM [2]: 42%
- inhibition at 25 µM [2]: 69%
- minimal effective concentration ([3]; Homo sapiens, NCI/ADR-RES, 100 nM [3H] VLB, 2.5 hours, FIGS. 2 and 3, read-out: lowest concentration which causes a doubling of basal accumulation of vinblastine): 0.5 µM
- activity in vinblastine accumulation assay / drug accumulation ([3]; MDR MCF7): greater activity than 1b; also recorded: greatest activity in drug accumulation assays; also recorded: increase vinblastine accumulation in MDR MCF7; also recorded: activity superior to verapamil at concentrations between 0.5 μM and 10 μM
- calmodulin kinase inhibitory activity (calmodulin kinase): did not inhibit
- protein kinase A inhibitory activity [4]: did not inhibit
- toxicity in mice (mice): not toxic at 400 mg/kg in mice

Reference: patent US5436243A, “Aminoanthraquinone derivatives to combat multidrug resistance” (priority 1993, dated 1995)
